Experimental findings from article PMC7125190, “Native/citrullinated LL37-specific T-cells help autoantibody production in Systemic Lupus Erythematosus” (Scientific Reports, 2020) are described below.

The test system of one experiment is CD3+CD4+ T-cells. Description: T-cell proliferation assay (BrdU incorporation of PBMC). Type of experiment: cell-based, human. The conditions noted are these: for CLE patients whose CD3+CD4+ cells proliferated: CLE PBMC; for CLE patients whose CD3+CD4+ cells proliferated / SLE patients whose CD3+CD4+ cells proliferated: day 6, BrdU; for CLE patients whose CD3+CD4+ cells proliferated / PSO patients whose T-cells responded / RA patients whose T-cells proliferated / SLE patients whose CD3+CD4+ cells proliferated: positive if SI ≥3; for T-cell proliferation in HD/SSc: HD (LL37, cit-LL37) and SSc (LL37) PBMC; for PSO patients whose T-cells responded: PSO PBMC, ten of twenty-nine (LL37), 3 of 21 (cit-LL37); for PSO patients whose T-cells responded / RA patients whose T-cells proliferated: BrdU; for RA patients whose T-cells proliferated: RA PBMC, two of 15; for SLE patients whose CD3+CD4+ cells proliferated: SLE PBMC, 18 of 40 (LL37), 11 of 25 (cit-LL37); for Change of T-cell response on follow-up: eight SLE patients, up to 36 months of successful standard therapy, statistically significant for native LL37; for Proliferative response in LL37-non-responders: three SLE LL37-non-responders. The protocol: PBMCs were purified, from EDTA-treated blood, on Ficoll-Hypaque (Pharmacia Fine Chemicals, Uppsala, Sweden) were incubated (10^5 cells/well) in 96-well-flat-bottom-microplates (BD) in T cell- […]
penicillin, and 100 μg/mL streptomycin), with/without peptides. We performed assays on fresh cells, within 1-to-3 hours from collection, or on PBMCs frozen in 90% FCS-10%DMSO, whose viability we assessed by Trypan blue exclusion, at inverted microscope.
At day3 and 5, BrdU was added (1 μg/mL). BrdU-incorporation was detected by APC-labeled anti-BrdU antibody (BD Pharmingen), after surface staining by flow cytometry. Internal control for T-cell viability and proliferation was PHA treatment (2 μg/mL). SI for proliferation was calculated by dividing percent of BrdU-staining in the presence of each peptide used to stimulate cells by percent of BrdU-staining in the absence of peptide stimulation. SI for proliferation was considered positive when>3. This cut-off was obtained by calculating the mean+2DS [1.5 + 2 (0.6)] (of the stimulation indexes calculated as above) of the proliferation of HD.
Basal % of proliferation was set using, as reference, an isotype matched antibody staining (APC- […]
Assays were repeated twice with each patient. In rare cases in which background proliferation exceed antigen-specific proliferation the assay was repeated three times. Concomitant phenotype analysis of LL37-responder T-cells included staining for CD4, CD8, CXCR5, PD1, ICOS, CCR6. […]

Experiment [1] relates to SLE/CLE skin and kidney, HD skin. Description: Immunohistochemistry and laser scanner confocal microscopy of tissues. The note with it: for presence in SLE and CLE target organs: IHC and LSM, skin (dermis) and kidney; for kidney biopsies with DNA filaments bound to LL37 and/or cit-LL37: lupus nephritis, four of seven biopsies. Further details: species or system human. Here is the method: Immunohistochemistry and laser scanner confocal microscopy (LSM)
We performed staining on […] paraffin or frozen sections of human lupus erythematosus skin specimens obtained from CHUV, Dept. of Dermatology. Staining with anti-cit-LL37 Mabs was performed using the antibodies Mab142 and Mab137 at 1:40 dilution, followed by incubation with a […] (Abcam). HRP and DAB (DAKO) were used to develop the color. Nuclear staining was performed with Mayer’s haematoxylin. […]
Frozen or paraffin-included SLE renal biopsies, obtained from Policlinico Umberto I, Rome, IT or CHUV Lausanne, CH, were stained, after saturation with blocking buffer (PBS, 0.05% tween 20, 4% BSA) for 1 hour at room temperature. Bopsies in paraffin were stained after de-paraffination in xilene (5 minutes, two times), followed by passages in: absolute ethanol (3 minutes), 95% ethanol in water (3 minutes), 80% ethanol in water (3 minutes), 70% ethanol in water (3 minutes), and antigen retrieval (5 minutes at […]
95°C in 10 mM sodium citrate, pH 6.0). Antibodies (Mab142 or Mab137) were added at 1:50 dilution (all diluited in blocking buffer) (isotype control was added at 1:100 concentration) for 1 hour at room temperature in a humidified chamber. Anti-C9 (Atlas antibodies, Sweden) was added at 1:50 dilution (all antibody dilutions were in blocking buffer). Slides were washed three times for 3 minutes under agitation with PBS 0.1% tween 20 and incubated with donkey anti-mouse or anti-rabbit secondary antibody or mouse anti-goat antibody, conjugated with AlexaFluor 647, Alexa Fluor 568 or 594 or AlexaFluor 488, depending on the combinations of markers analyzed (in humidified chamber). Slides were washed again, and mounted in Prolong Gold anti-fade media containing a DNA dye (DAPI) (Molecular Probes), before analysis with a confocal microscope, objectives 20x, or 40x and 60x in oil immersion. Images were taken by a FV1000 confocal microscope (Olympus, Tokyo, Japan), using a Olympus planapo objective 40x or 60x oil A.N. 1,42.
Excitation light was obtained by a Laser Dapi 408 nm for DAPI, an Argon Ion Laser (488 nm) for FITC (Alexa 488), a Diode Laser HeNe (561 nm) for Alexa 568, and a Red Diode Laser (638 nm) for Alexa 647. DAPI emission was recorded from 415 to 485 nm, FITC emission was recorded […]
For quantification of LL37 and cit-LL37 in renal/skin biopsies, we counted the specific staining spots in at least 3 sections from each patient, by using the ImageJ64 software. For comparison we also counted the staining in HD skin, as background staining. To estimate the percent of co-localization between IgG and LL37 staining we measured, in three sections for each patient, the total IgG or LL37 staining in single color images and than on merge images we assessed the spots that indicates the co-localization IgG/LL37.
Reactivity of mouse anti-LL37 monoclonal antibodies (Mab137 and Mab142) Biotinylated native LL37, cit-SCR LL37, SCR LL37, cit-LL37, and the other citrullinated and non-citrullinated control antigenic peptides (also biotinylated) were diluted at 2-to-5 µg/mL and added to the wells over night at 4°C. Excess unbound peptides were washed away with wash buffer (PBS

For “LLGDFFRKSKEKIGKEFKRIVQRIKDFLRNLVPRTES [LL37, native LL37, antimicrobial peptide, 37 aa]”, in the experiment on CD3+CD4+ T-cells, the “CLE patients whose CD3+CD4+ cells proliferated” value was “three of five”, the “T-cell proliferation in HD/SSc” value is recorded as “No SSc or HD showed a significant response”, the “PSO patients whose T-cells responded” value is given as 34% and the “RA patients whose T-cells proliferated” value came to 13%. Further, in the experiment on CD3+CD4+ T-cells, the “SLE patients whose CD3+CD4+ cells proliferated” value is listed as 45%, the “Change of T-cell response on follow-up” value is “decreased” and the “Proliferative response in LL37-non-responders” value is listed as “no proliferation”. For the same substance, in experiment [1], the “presence in SLE and CLE target organs” value is listed as “detected”; the “kidney biopsies with DNA filaments bound to LL37 and/or cit-LL37” value was 57%. In experiment [1] (healthy donor skin), the “expression in HD skin” value is reported as “did not express significant amounts”.
With “LLGDFFR(cit)KSKEKIGKEFKR(cit)IVQR(cit)IKDFLR(cit)NLVPR(cit)TES [cit-LL37, citrullinated LL37 (citrullinated at all five arginin positions)]”, in the experiment on CD3+CD4+ T-cells, the “CLE patients whose CD3+CD4+ cells proliferated” value is on record as 3 of 5, the “T-cell proliferation in HD/SSc” value was “no responses in HD”, the “PSO patients whose T-cells responded” value is 14% and the “RA patients whose T-cells proliferated” value is on record as 13%. In the experiment with CD3+CD4+ T-cells, the “SLE patients whose CD3+CD4+ cells proliferated” value was found to be 44%, the “Change of T-cell response on follow-up” value is recorded as “decreased” and the “Proliferative response in LL37-non-responders” value is “no proliferation”. Further, the “Proliferative response at remission” value with CD3+CD4+ T-cells (SLE at remission (T1), only at the highest dose) is listed as “still significant only in response to cit-LL37”. Further, the “Proliferative response at lower antigen dose, cit-LL37 versus native” value with CD3+CD4+ T-cells (SLE, low dose 1 μg/mL, 12 LL37/cit-LL37 responders) is recorded as “T-cells responded better to cit-LL37 than the native counterpart at lower antigen doses”. For the same substance, in experiment [1], the “presence in SLE and CLE target organs” value is reported as “detected”; the “kidney biopsies with DNA filaments bound to LL37 and/or cit-LL37” value amounted to 57%.
